Measured values published in publication PMC11637378, “Optogenetic screening of MCT1 activity implicates a cluster of non-steroidal anti-inflammatory drugs (NSAIDs) as inhibitors of lactate transport” (PLOS ONE, 2024).

Columns and labels:
parent strain (SAWy518) [1] = test system: parent strain (SAWy518)
parent strain (SAWy518) [2] = experiment: microbe, parasite or virus in culture; set-up: species or system Saccharomyces cerevisiae SAWy518; Off-target growth counter-screen, OD600 as per cent of untreated wells, strain lacking MCT1; settings: 18.5 h; sheet Primary Screen - final;; off-target growth of parent strain, about 18 h
Procedure: Cells were grown for 18 hours prior to OD measurement. Fill represents manual compound grouping based on compound class or target. OD600 is reported in Tecan units. […] The drug library used in this study for the initial screen and rescreen was provided by the Small Molecule Screening Center at Princeton University, through a collaboration with Dr. Hahn Kim. […] Follow-up analysis (IC50 determinations) on library compounds was performed using compounds purchased from outside sources. […] Stocks were then diluted 100-fold into media containing 0.01 OD600 inoculation of yeast, to achieve the final concentrations listed. Where compounds were added manually (for example 10 μM AZD3965 addition) stock concentrations were diluted by a factor of 100-fold regardless of scale, resulting in a final concentration of 1% v/v DMSO which is well tolerated by yeast.

Question: Which OffScreen_percentage (parent strain (SAWy518) [1]) does the source give for O=C(/C=C/c1ccc(O)cc1)CC(=O)/C=C/c1ccc(O)cc1 [Bisdemethoxycurcumin] here?
Answer: 99.4424 percentage

Question: And the Offscreen_18hr (parent strain (SAWy518) [1])?
Answer: 0.8025

Question: What about the Offscreen_24hr (parent strain (SAWy518) [1]) of the same compound?
Answer: 0.8965

Question: What about the Offscreen_42hr (parent strain (SAWy518) [1]) of the same compound?
Answer: 0.9569

Question: And the Read_percentage (parent strain (SAWy518) [1])?
Answer: 99.4424 percentage

Question: What about the viability at 10 µM (parent strain (SAWy518) [2]) of the same compound?
Answer: 99.4%

Question: What does the source list for OC(Cn1cncn1)(Cn1cncn1)c1ccc(F)cc1F [Fluconazole]?
Answer: OffScreen_percentage (parent strain (SAWy518) [1]): 99.6283 percentage; Offscreen_18hr (parent strain (SAWy518) [1]): 0.804; Offscreen_24hr (parent strain (SAWy518) [1]): 0.8953; Offscreen_42hr (parent strain (SAWy518) [1]): 0.9483; Read_percentage (parent strain (SAWy518) [1]): 99.6283 percentage; viability at 10 µM (parent strain (SAWy518) [2]): 99.6%

Question: With O=C1Nc2ccc(Cl)cc2[C@@](C#CC2CC2)(C(F)(F)F)O1 [Efavirenz] as the compound, how does the OffScreen_percentage (parent strain (SAWy518) [1]) read?
Answer: 96.803 percentage

Question: What about the Offscreen_18hr (parent strain (SAWy518) [1]) of the same compound?
Answer: 0.7812

Question: What about the Offscreen_24hr (parent strain (SAWy518) [1]) of the same compound?
Answer: 0.8701

Question: What about the Offscreen_42hr (parent strain (SAWy518) [1]) of the same compound?
Answer: 0.9373

Question: What about the Read_percentage (parent strain (SAWy518) [1]) of the same compound?
Answer: 96.803 percentage

Question: And the viability at 10 µM (parent strain (SAWy518) [2])?
Answer: 96.8%

Question: How did the OffScreen_percentage (parent strain (SAWy518) [1]) turn out when COc1ccc2c(c1)OCc1c-2oc2cc(OC)ccc12 [Dehydrovariabilin] was run?
Answer: 93.7794 percentage

Question: What about the Offscreen_18hr (parent strain (SAWy518) [1]) of the same compound?
Answer: 0.7568

Question: What about the Offscreen_24hr (parent strain (SAWy518) [1]) of the same compound?
Answer: 0.8766

Question: And the Offscreen_42hr (parent strain (SAWy518) [1])?
Answer: 0.938

Question: What about the Read_percentage (parent strain (SAWy518) [1]) of the same compound?
Answer: 93.7794 percentage

Question: What about the viability at 10 µM (parent strain (SAWy518) [2]) of the same compound?
Answer: 93.8%

Question: O=[N+]([O-])c1ccc(CNc2nc(NCc3cccc(C(F)(F)F)c3)nc3[nH]cnc23)cc1 [TNP] was tested. Which OffScreen_percentage (parent strain (SAWy518) [1]) did it give?
Answer: 99.4919 percentage

Question: What about the Offscreen_18hr (parent strain (SAWy518) [1]) of the same compound?
Answer: 0.8029

Question: And the Offscreen_24hr (parent strain (SAWy518) [1])?
Answer: 0.895

Question: What about the Offscreen_42hr (parent strain (SAWy518) [1]) of the same compound?
Answer: 0.9464

Question: What about the Read_percentage (parent strain (SAWy518) [1]) of the same compound?
Answer: 99.4919

Question: And the viability at 10 µM (parent strain (SAWy518) [2])?
Answer: 99.5%

Question: Which OffScreen_percentage (parent strain (SAWy518) [1]) does the source give for N#Cc1c(O)c2c(-c3ccc(-c4ccccc4O)cc3)csc2[nH]c1=O [A-769662] here?
Answer: 102.02 percentage

Question: What about the Offscreen_18hr (parent strain (SAWy518) [1]) of the same compound?
Answer: 0.8233

Question: And the Offscreen_24hr (parent strain (SAWy518) [1])?
Answer: 0.9004

Question: And the Offscreen_42hr (parent strain (SAWy518) [1])?
Answer: 0.9609

Question: And the Read_percentage (parent strain (SAWy518) [1])?
Answer: 102.02 percentage

Question: What about the viability at 10 µM (parent strain (SAWy518) [2]) of the same compound?
Answer: 102%

Question: For O=c1cc(-c2ccc(O)cc2)oc2cc(O)cc(O)c12 [Apigenin], which OffScreen_percentage (parent strain (SAWy518) [1]) is on record?
Answer: 96.0843 percentage

Question: And the Offscreen_18hr (parent strain (SAWy518) [1])?
Answer: 0.7754

Question: And the Offscreen_24hr (parent strain (SAWy518) [1])?
Answer: 0.8699

Question: What about the Offscreen_42hr (parent strain (SAWy518) [1]) of the same compound?
Answer: 0.9646

Question: What about the Read_percentage (parent strain (SAWy518) [1]) of the same compound?
Answer: 96.0843 percentage

Question: And the viability at 10 µM (parent strain (SAWy518) [2])?
Answer: 96.1%

Question: Which results are given for COc1cc(C(=O)NS(=O)(=O)c2ccccc2C)ccc1Cc1cn(C)c2ccc(NC(=O)OC3CCCC3)cc12 [Zafirlukast]?
Answer: OffScreen_percentage (parent strain (SAWy518) [1]): 103.829 percentage; Offscreen_18hr (parent strain (SAWy518) [1]): 0.8379; Offscreen_24hr (parent strain (SAWy518) [1]): 0.9188; Offscreen_42hr (parent strain (SAWy518) [1]): 0.9793; Read_percentage (parent strain (SAWy518) [1]): 103.829; viability at 10 µM (parent strain (SAWy518) [2]): 104%

Question: How did the OffScreen_percentage (parent strain (SAWy518) [1]) turn out when CC1(C)C=Cc2c(c3c(c4c(=O)c(-c5ccc(O)c(O)c5)coc24)OC(C)(C)CC3)O1 [Isopomiferin] was run?
Answer: 94.8327 percentage

Question: And the Offscreen_18hr (parent strain (SAWy518) [1])?
Answer: 0.7653

Question: And the Offscreen_24hr (parent strain (SAWy518) [1])?
Answer: 0.8834

Question: And the Offscreen_42hr (parent strain (SAWy518) [1])?
Answer: 0.95

Question: What about the Read_percentage (parent strain (SAWy518) [1]) of the same compound?
Answer: 94.8327 percentage

Question: And the viability at 10 µM (parent strain (SAWy518) [2])?
Answer: 94.8%

Question: How did the OffScreen_percentage (parent strain (SAWy518) [1]) turn out when CC1=C(C)C(=O)C(C(CCCCCC(=O)O)c2ccccc2)=C(C)C1=O (stereo not drawn) [Seratrodast] was run?
Answer: 93.9777 percentage

Question: What about the Offscreen_18hr (parent strain (SAWy518) [1]) of the same compound?
Answer: 0.7584

Question: What about the Offscreen_24hr (parent strain (SAWy518) [1]) of the same compound?
Answer: 0.8726

Question: What about the Offscreen_42hr (parent strain (SAWy518) [1]) of the same compound?
Answer: 0.927

Question: And the Read_percentage (parent strain (SAWy518) [1])?
Answer: 93.9777

Question: What about the viability at 10 µM (parent strain (SAWy518) [2]) of the same compound?
Answer: 94%

Question: What does the source list for O=C(/C=C/c1ccc(O)cc1)c1ccc(O)cc1O [Isoliquiritigenin]?
Answer: OffScreen_percentage (parent strain (SAWy518) [1]): 101.326 percentage; Offscreen_18hr (parent strain (SAWy518) [1]): 0.8177; Offscreen_24hr (parent strain (SAWy518) [1]): 0.9161; Offscreen_42hr (parent strain (SAWy518) [1]): 0.9757; Read_percentage (parent strain (SAWy518) [1]): 101.326 percentage; viability at 10 µM (parent strain (SAWy518) [2]): 101%

Question: C=CC(C1=CC(=O)C=CC1=O)c1ccccc1 (stereo not drawn) [Dalbergione] was tested. Which OffScreen_percentage (parent strain (SAWy518) [1]) did it give?
Answer: 104.3 percentage

Question: And the Offscreen_18hr (parent strain (SAWy518) [1])?
Answer: 0.8417

Question: And the Offscreen_24hr (parent strain (SAWy518) [1])?
Answer: 0.9214

Question: What about the Offscreen_42hr (parent strain (SAWy518) [1]) of the same compound?
Answer: 0.9762

Question: And the Read_percentage (parent strain (SAWy518) [1])?
Answer: 104.3 percentage

Question: What about the viability at 10 µM (parent strain (SAWy518) [2]) of the same compound?
Answer: 104%

Question: For COC1=C(CC=C(C)C)C(=O)c2ccccc2C1=O [Lapachol methyl ester], which OffScreen_percentage (parent strain (SAWy518) [1]) is on record?
Answer: 101.524 percentage

Question: And the Offscreen_18hr (parent strain (SAWy518) [1])?
Answer: 0.8193

Question: What about the Offscreen_24hr (parent strain (SAWy518) [1]) of the same compound?
Answer: 0.9161

Question: And the Offscreen_42hr (parent strain (SAWy518) [1])?
Answer: 0.9749

Question: And the Read_percentage (parent strain (SAWy518) [1])?
Answer: 101.524 percentage

Question: What about the viability at 10 µM (parent strain (SAWy518) [2]) of the same compound?
Answer: 102%

Question: What does the source list for CC[C@H](c1ccc(O)cc1)[C@@H](CC)c1ccc(O)cc1 [Hexestrol]?
Answer: OffScreen_percentage (parent strain (SAWy518) [1]): 99.6654 percentage; Offscreen_18hr (parent strain (SAWy518) [1]): 0.8043; Offscreen_24hr (parent strain (SAWy518) [1]): 0.9011; Offscreen_42hr (parent strain (SAWy518) [1]): 0.9595; Read_percentage (parent strain (SAWy518) [1]): 99.6654 percentage; viability at 10 µM (parent strain (SAWy518) [2]): 99.7%
